Tested on: transgenic maize plants
Experiment: Detection of the herbicide tolerance of the transgenic maize plants
Format: in vivo
Settings: for The grade of pesticide damage/plant: 0 / The grade of pesticide damage/plant: 1 / The grade of pesticide damage/plant: 2 / The grade of pesticide damage/plant: 3: 7 DAT
Source text: The transformed Arabidopsis thaliana T1 plants were initially selected using glufosinate herbicide. The Arabidopsis thaliana T1 plants (PPOA-01) into which the PPOA-01 nucleotide sequence was introduced, the Arabidopsis thaliana T1 plants (PPOB-01) into which the PPOB-01 nucleotide sequence was introduced, the Arabidopsis thaliana T1 plants (PPOC-01) into which the PPOC-01 nucleotide sequence was introduced, the Arabidopsis thaliana T1 plants (PPOD-01) into which the PPOD-01 nucleotide sequence was introduced, the Arabidopsis thaliana T1 plants (PPOE-01) into which the PPOE-01 nucleotide sequence was introduced, the Arabidopsis thaliana T1 plants (PPOF-01) into which the PPOF-01 nucleotide sequence was introduced, the Arabidopsis thaliana T1 plants (PPO-AP-01) into which the PPO-AP-01 nucleotide sequence was introduced, and the Arabidopsis thaliana T1 plants (control vector) into which the control vector was introduced, the wild-type Arabidopsis thaliana plants (CK) (with 24 plants being included in each genotype) (18 days after sowing) were sprayed with saflufenacil at three concentrations (25 g ai/ha (one-fold field concentration, 1×), 100 g ai/ha (four-fold field concentration, 4×), and 0 g ai/ha (water, 0×)), oxyfluorfen at three concentrations (180 g ai/ha (one-fold field concentration, 1×), 720 g ai/ha (four-fold field concentration, 4×), and 0 g ai/ha (water, 0×)), and flumioxazin at three concentrations (60 g ai/ha (one-fold field concentration, 1×), 240 g ai/ha (four-fold field concentration, 4×), and 0 g ai/ha (water, 0×) to determine the tolerance of Arabidopsis thaliana to the herbicides. After 7 days of spraying (7 DAT), the damage level of each plant caused by the herbicide was evaluated according to the average of the damage levels (%) of plants (the average of the damage levels (%) of plants=the injured leaf area/the total leaf area×100%), i.e., the grade of pesticide damage: grade 0 means that the growth status of plants is essentially consistent with those sprayed with the blank solvent (water); grade 1 means that the average of the damage levels of plants is less than 10%; grade 2 means that the average of the damage levels of plants is greater than 10%; and grade 3 means that the average of the damage levels of plants is 100%. The plants having a growth status falling within grades 0 and 1 are classified as highly resistant plants; those having a growth status falling within grade 2 are classified as poorly resistant plants; and those having a growth status falling within grade 3 are classified as non-resistant plants.
The maize plants into which the PPOA-02 nucleotide sequence was introduced, the maize plants into which the PPOB-02 nucleotide sequence was introduced, the maize plants into which the PPOC-02 nucleotide sequence was introduced, the maize plants into which the PPOD-02 nucleotide sequence was introduced, the maize plants into which the PPOE-02 nucleotide sequence was introduced, the maize plants into which the PPOF-02 nucleotide sequence was introduced, the maize plants into which the PPO-AP-02 nucleotide sequence was introduced, the maize plants (control vector) into which the control vector was introduced, and the wild-type maize plants (CK) (with 16 plants being included in each genotype) (18 days after sowing) were taken and sprayed with saflufenacil at three concentrations (50 g ai/ha (two-fold field concentration, 2×), 100 g ai/ha (four-fold field concentration, 4×), and 0 g ai/ha (water, 0×)), oxyfluorfen at three concentrations (360 g ai/ha (two-fold field concentration, 2×), 720 g ai/ha (four-fold field concentration, 4×), and 0 g ai/ha (water, 0×), and flumioxazin at three concentrations (120 g ai/ha (two-fold field concentration, 2×), 240 g ai/ha (four-fold field concentration, 4×), and 0 g ai/ha (water, 0×) to determine the tolerance of maize plants to the herbicides. […]

[1] = genotype Control vector, 120 g ai/ha
[2] = genotype Control vector, 240 g ai/ha
[3] = genotype PPO-AP-02, 120 g ai/ha
[4] = genotype PPO-AP-02, 240 g ai/ha

Compound: C#CCN1C(=O)COc2cc(F)c(N3C(=O)C4=C(CCCC4)C3=O)cc21 [flumioxazin, 2-[7-fluoro-3,4-dihydro-3-oxo-4-(2-propynyl)-2H-1,4-benzoxazin-6-yl]-4,5,6,7-tetrahydro-1H-isoindole-1,3(2H)-dione]
- The grade of pesticide damage/plant: 0 (genotype CK, 120 g ai/ha): 0 plant
- The grade of pesticide damage/plant: 1 (genotype CK, 120 g ai/ha): 0 plant
- The grade of pesticide damage/plant: 2 (genotype CK, 120 g ai/ha): 0 plant
- The grade of pesticide damage/plant: 3 (genotype CK, 120 g ai/ha): 16 plant
- The grade of pesticide damage/plant: 0 (genotype CK, 240 g ai/ha): 0 plant
- The grade of pesticide damage/plant: 1 (genotype CK, 240 g ai/ha): 0 plant
- The grade of pesticide damage/plant: 2 (genotype CK, 240 g ai/ha): 0 plant
- The grade of pesticide damage/plant: 3 (genotype CK, 240 g ai/ha): 16 plant
- The grade of pesticide damage/plant: 0 [1]: 0 plant
- The grade of pesticide damage/plant: 1 [1]: 0 plant
- The grade of pesticide damage/plant: 2 [1]: 0 plant
- The grade of pesticide damage/plant: 3 [1]: 16 plant
- The grade of pesticide damage/plant: 0 [2]: 0 plant
- The grade of pesticide damage/plant: 1 [2]: 0 plant
- The grade of pesticide damage/plant: 2 [2]: 0 plant
- The grade of pesticide damage/plant: 3 [2]: 16 plant
- The grade of pesticide damage/plant: 0 [3]: 0 plant
- The grade of pesticide damage/plant: 1 [3]: 0 plant
- The grade of pesticide damage/plant: 2 [3]: 3 plant
- The grade of pesticide damage/plant: 3 [3]: 13 plant
- The grade of pesticide damage/plant: 0 [4]: 0 plant
- The grade of pesticide damage/plant: 1 [4]: 0 plant
- The grade of pesticide damage/plant: 2 [4]: 0 plant
- The grade of pesticide damage/plant: 3 [4]: 16 plant
- tolerance to the herbicide (in words) (genotype PPO-AP-02, at different concentrations): basically no tolerance
- The grade of pesticide damage/plant: 0 (genotype PPOA-02, 120 g ai/ha): 16 plant
- The grade of pesticide damage/plant: 1 (genotype PPOA-02, 120 g ai/ha): 0 plant
- The grade of pesticide damage/plant: 2 (genotype PPOA-02, 120 g ai/ha): 0 plant
- The grade of pesticide damage/plant: 3 (genotype PPOA-02, 120 g ai/ha): 0 plant
- The grade of pesticide damage/plant: 0 (genotype PPOA-02, 240 g ai/ha): 16 plant
- The grade of pesticide damage/plant: 1 (genotype PPOA-02, 240 g ai/ha): 0 plant
- The grade of pesticide damage/plant: 2 (genotype PPOA-02, 240 g ai/ha): 0 plant
- The grade of pesticide damage/plant: 3 (genotype PPOA-02, 240 g ai/ha): 0 plant
- The grade of pesticide damage/plant: 0 (genotype PPOB-02, 120 g ai/ha): 16 plant
- The grade of pesticide damage/plant: 1 (genotype PPOB-02, 120 g ai/ha): 0 plant
- The grade of pesticide damage/plant: 2 (genotype PPOB-02, 120 g ai/ha): 0 plant
- The grade of pesticide damage/plant: 3 (genotype PPOB-02, 120 g ai/ha): 0 plant
- The grade of pesticide damage/plant: 0 (genotype PPOB-02, 240 g ai/ha): 16 plant
- The grade of pesticide damage/plant: 1 (genotype PPOB-02, 240 g ai/ha): 0 plant
- The grade of pesticide damage/plant: 2 (genotype PPOB-02, 240 g ai/ha): 0 plant
- The grade of pesticide damage/plant: 3 (genotype PPOB-02, 240 g ai/ha): 0 plant
- The grade of pesticide damage/plant: 0 (genotype PPOC-02, 120 g ai/ha): 16 plant
- The grade of pesticide damage/plant: 1 (genotype PPOC-02, 120 g ai/ha): 0 plant
- The grade of pesticide damage/plant: 2 (genotype PPOC-02, 120 g ai/ha): 0 plant
- The grade of pesticide damage/plant: 3 (genotype PPOC-02, 120 g ai/ha): 0 plant
- The grade of pesticide damage/plant: 0 (genotype PPOC-02, 240 g ai/ha): 16 plant
- The grade of pesticide damage/plant: 1 (genotype PPOC-02, 240 g ai/ha): 0 plant
- The grade of pesticide damage/plant: 2 (genotype PPOC-02, 240 g ai/ha): 0 plant
- The grade of pesticide damage/plant: 3 (genotype PPOC-02, 240 g ai/ha): 0 plant
- The grade of pesticide damage/plant: 0 (genotype PPOD-02, 120 g ai/ha): 16 plant
- The grade of pesticide damage/plant: 1 (genotype PPOD-02, 120 g ai/ha): 0 plant
- The grade of pesticide damage/plant: 2 (genotype PPOD-02, 120 g ai/ha): 0 plant
- The grade of pesticide damage/plant: 3 (genotype PPOD-02, 120 g ai/ha): 0 plant
- The grade of pesticide damage/plant: 0 (genotype PPOD-02, 240 g ai/ha): 16 plant
- The grade of pesticide damage/plant: 1 (genotype PPOD-02, 240 g ai/ha): 0 plant
- The grade of pesticide damage/plant: 2 (genotype PPOD-02, 240 g ai/ha): 0 plant
- The grade of pesticide damage/plant: 3 (genotype PPOD-02, 240 g ai/ha): 0 plant
- The grade of pesticide damage/plant: 0 (genotype PPOE-02, 120 g ai/ha): 16 plant
- The grade of pesticide damage/plant: 1 (genotype PPOE-02, 120 g ai/ha): 0 plant
- The grade of pesticide damage/plant: 2 (genotype PPOE-02, 120 g ai/ha): 0 plant
- The grade of pesticide damage/plant: 3 (genotype PPOE-02, 120 g ai/ha): 0 plant
- The grade of pesticide damage/plant: 0 (genotype PPOE-02, 240 g ai/ha): 16 plant
- The grade of pesticide damage/plant: 1 (genotype PPOE-02, 240 g ai/ha): 0 plant
- The grade of pesticide damage/plant: 2 (genotype PPOE-02, 240 g ai/ha): 0 plant
- The grade of pesticide damage/plant: 3 (genotype PPOE-02, 240 g ai/ha): 0 plant
- The grade of pesticide damage/plant: 0 (genotype PPOF-02, 120 g ai/ha): 16 plant
- The grade of pesticide damage/plant: 1 (genotype PPOF-02, 120 g ai/ha): 0 plant
- The grade of pesticide damage/plant: 2 (genotype PPOF-02, 120 g ai/ha): 0 plant
- The grade of pesticide damage/plant: 3 (genotype PPOF-02, 120 g ai/ha): 0 plant
- The grade of pesticide damage/plant: 0 (genotype PPOF-02, 240 g ai/ha): 16 plant
- The grade of pesticide damage/plant: 1 (genotype PPOF-02, 240 g ai/ha): 0 plant
- The grade of pesticide damage/plant: 2 (genotype PPOF-02, 240 g ai/ha): 0 plant
- The grade of pesticide damage/plant: 3 (genotype PPOF-02, 240 g ai/ha): 0 plant
- tolerance to the herbicide (in words) (genotypes PPOA-02 to PPOF-02, at different concentrations): high-resistant tolerance

Reference: patent US20250275540A1, “USE OF PROTOPORPHYRINOGEN OXIDASE” (BEIJING DABEINONG BIOTECHNOLOGY CO., LTD., priority 2022, published 2025)
